Assay results as given in PMC3789979, “Recruitment of a Cytoplasmic Chaperone Relay by the A2A Adenosine Receptor” (The Journal of Biological Chemistry, 2013).
Like-named read-outs stand apart in the source and are kept apart here.

Tests used:
[1] = system: endogenously expressed A2A receptor in PC12 cells; test: [3H]ZM241385 binding to membranes of inhibitor-pretreated PC12 cells; format: cell-based; conditions: for increase in steady state levels of active A2A receptors: PC12 cells, kifunensine 2 μM, bortezomib 10 nM; for levels of functional (binding-competent) receptors: 24 h pretreatment, 2 μM, 10 nM [3H]ZM241385, PC12 membranes
Description: (§1) After 60 min at 23 °C, the reaction was terminated by rapid filtration over glass fiber filters (Whatman-GE Healthcare). […] Total receptor numbers were also determined by measuring the radioactivity released after dissolving the samples in 1 M NaOH ([22]). […] The number of viable cells was determined manually using a microscope counting chamber.
(§2) FIGURE 9. Effect of HSP90 and/or proteasome inhibitors on the levels of endogenously expressed A2A receptor in PC12 cells. […] B, prior to membrane preparations of PC12 cells expressing the A2A receptor, cells were incubated in the absence and presence of 17-DMAG (2 μM), kifunensine (2 μM), and bortezomib (10 nM). […] After two washes, surface-bound radioligand was released by an acid strip and recovered in the supernatant. Assays were performed in quadruplicates. […] After membrane extraction and immunoprecipitation, aliquots (corresponding to 3 × 10^5 cells) of the immunoprecipitate were blotted for the A2A receptor (top), HSP90α, HSP70–1A, HOP, P23, and CHIP, as indicated. M, mature; C, core glycosylated.

[2] = system: A2A receptor-chaperone complexes, HEK293 cells stably expressing FS2-N-A2AR; test: Co-affinity precipitation of receptor-chaperone complexes after inhibitor treatment; format: cell-based, human; conditions: 17-DMAG 2 μM; for amount of HSP90 co-affinity-purified with the A2A receptor / association of HSP70 with the A2A receptor / higher glycosylated, mature form of the co-purified A2A receptor (ratio mature/core): 24 h, kifunensine 2 μM, bortezomib 10 nM
Description: (§3) Cells (1–5 × 10^7 cells) were harvested, and membranes were prepared as described previously ([14]). Membranes were solubilized as described above, followed by incubation with streptavidin-conjugated beads (G2S-N-A2A) or Strep-Tactin-Sepharose beads (FSt2-N-A2A) for 2 h at 4 °C. […] Thereafter, preequilibrated protein G-Sepharose beads were added and incubated for an additional 3 h at 4 °C. The beads were washed twice with 0.5 ml of solubilization buffer. […] A2A receptor and HSP90 were detected by immunoblotting using either anti-A2AR or anti-FLAG and anti-HSP90α (Abcam, Cambridge, UK) antibodies, respectively. As a control, membranes were harvested from untransfected HEK293 cells and processed in parallel. Immunoblots were quantified as described above. Where required, nitrocellulose membranes of primary and secondary antibody labeling were stripped by incubation with KSCN buffer (3 M KSCN, 150 mM KCl, 10 mM NaH2PO4, 100 mg/liter polyvinylpyrrolidone K30, 1-ethenylpyrrolidin-2-one) for 20 min at 23 °C to afford detection of additional proteins with the pertinent antibodies (i.e. anti-HSP90β, anti-HSC70, anti-HOP, anti-P23, and anti-CHIP, all from Abcam).
FIGURE 7. […] B, immunoblots done as in A (top) were analyzed with ImageJ. […] C, the A2A receptor was immunoprecipitated from cells that had been incubated in the presence and absence of 17-DMAG (2 μM) as in A. The levels of HSC70 (C, top), HOP (C, second from top), P23 (C, third from top), and CHIP (C, bottom) were determined by immunoblotting and quantified with ImageJ.

[3] = system: A2A receptor-chaperone complexes in PC12 cells; test: Immunoprecipitation of endogenous A2A receptor from inhibitor-pretreated PC12 cells and immunoblotting; format: cell-based; conditions: for fully glycosylated, slowly migrating band of the A2A receptor: kifunensine 2 μM, bortezomib 10 nM
Description: as §3, §2

[4] = parameters: method as in PMID 20177028; conditions: administered to people; cited from earlier work
[5] = system: A2A receptor glycoforms, HEK293 cells stably expressing G2S-N-A2AR; test: Immunoblot of A2A receptor glycoforms after HSP90 inhibitor treatment; format: cell-based, human; conditions: saturating concentrations, 24 h
Description: as §3
FIGURE 5. […] Statistical significance was calculated by analysis of variance followed by Dunnett's multiple-comparison post hoc test (*, p < 0.05; ***, p < 0.001). […]

[6] = system: cell surface levels of the A2A receptor, HEK293 cells stably expressing FS2-N-A2AR; test: Cell surface levels of the A2A receptor after 24 h HSP90 inhibitor treatment (acid-strip-sensitive [3H]ZM241385 binding); format: cell-based, human; conditions: for EC50 relative to affinity for binding to HSP90: EC50 higher than HSP90 affinity of refs 27, 28
Description: as §1
FIGURE 5. […] Error bars, S.D. Data are from four independent experiments done in triplicate. Statistical significance was calculated by analysis of variance followed by Dunnett's multiple-comparison post hoc test (*, p < 0.05; ***, p < 0.001). B, HEK293 cells stably expressing the tagged version G2S-N-A2AR were incubated with increasing concentrations of radicicol or 17-DMAG.

CC(C)C[C@H](NC(=O)[C@H](Cc1ccccc1)NC(=O)c1cnccn1)B(O)O [bortezomib]
increase in steady state levels of active A2A receptors [1]: about 1.5 fold
amount of HSP90 co-affinity-purified with the A2A receptor [2]: did not cause the accumulation
association of HSP70 with the A2A receptor [2]: did not cause the accumulation
higher glycosylated, mature form of the co-purified A2A receptor (ratio mature/core) [2]: significant increase
fully glycosylated, slowly migrating band of the A2A receptor ([3]; 24 h, 17-DMAG 2 μM): increased the abundance

CO[C@H]1/C=C\C=C(/C)C(=O)NC2=CC(=O)C(NCCN(C)C)=C(C[C@@H](C)C[C@H](OC)[C@H](O)[C@@H](C)/C=C(\C)[C@@H]1OC(N)=O)C2=O [17-DMAG, 17-dimethylaminoethylamino-17-demethoxygeldanamycin]
levels of functional (binding-competent) receptors [1]: increased
half-life [4]: 24 h
associated CHIP [2]: decline
associated P23 [2]: decrease in associated P23 (HSP90 co-chaperone), but this did not reach statistical significance
co-precipitated HOP [2]: substantial increase
co-precipitated HSC70 [2]: substantial increase
amount of HSP90 co-affinity-purified with the A2A receptor [2]: increased
association of HSP70 with the A2A receptor [2]: augmented
higher glycosylated, mature form of the co-purified A2A receptor (ratio mature/core) [2]: significant increase
HSP90α, HSP70-1A and HSC70 recovered in the immunoprecipitate ([3]; 17-DMAG 2 μM, 24 h): abundant amounts
fully glycosylated, slowly migrating band of the A2A receptor ([3]; 24 h, 17-DMAG 2 μM): increased the abundance
HOP recovered with the A2A receptor ([3]; pretreatment with DMAG): more
P23 and CHIP recovered with the A2A receptor ([3]; pretreatment with DMAG): less
core glycosylated band of the A2A receptor (immunoblot) [5]: increased accumulation
EC50 ([6]; 24 h incubation, acid-strip-sensitive [3H]ZM241385 binding, read-out: EC50 for increase in cell surface levels of the A2A receptor): ~1000 nM
EC50 relative to affinity for binding to HSP90 [6]: about 3 fold

C[C@@H]1C[C@H]2O[C@@H]2/C=C\C=C\C(=O)Cc2c(Cl)c(O)cc(O)c2C(=O)O1 [radicicol]
core glycosylated band of the A2A receptor (immunoblot) [5]: increased accumulation
EC50 relative to affinity for binding to HSP90 [6]: about 3 fold
EC50 ([6]; Homo sapiens, HEK293, read-out: EC50 for increase in cell surface levels of the A2A receptor): ~400 nM

O=C1N[C@@H]2[C@@H](O)[C@@H](O)[C@H](O)[C@@H](CO)N2C1=O [kifunensine]
levels of functional (binding-competent) receptors [1]: increased
increase in steady state levels of active A2A receptors [1]: about 1.5 fold
amount of HSP90 co-affinity-purified with the A2A receptor [2]: accumulation
association of HSP70 with the A2A receptor [2]: accumulation
higher glycosylated, mature form of the co-purified A2A receptor (ratio mature/core) [2]: no significant increase
fully glycosylated, slowly migrating band of the A2A receptor ([3]; 24 h, 17-DMAG 2 μM): increased the abundance
